Experimental data from ChEMBL document CHEMBL5653631, “A Potent and Selective ULK1 Inhibitor Suppresses Autophagy and Sensitizes Cancer Cells to Nutrient Stress” (iScience, 2018).

Key:
[1] = target: Platelet-derived growth factor receptor alpha (Homo sapiens) (UniProt P16234); test: Inhibition of human recombinant PDGFRa at 40 nM in presence of ATP by radiometric assay relative to control
[2] = target: T1, Serine/threonine-protein kinase STK11 (Homo sapiens) (UniProt Q15831); test: Inhibition of human recombinant LKB1 at 40 nM related to control ULK1
T1 sequence (whole entry): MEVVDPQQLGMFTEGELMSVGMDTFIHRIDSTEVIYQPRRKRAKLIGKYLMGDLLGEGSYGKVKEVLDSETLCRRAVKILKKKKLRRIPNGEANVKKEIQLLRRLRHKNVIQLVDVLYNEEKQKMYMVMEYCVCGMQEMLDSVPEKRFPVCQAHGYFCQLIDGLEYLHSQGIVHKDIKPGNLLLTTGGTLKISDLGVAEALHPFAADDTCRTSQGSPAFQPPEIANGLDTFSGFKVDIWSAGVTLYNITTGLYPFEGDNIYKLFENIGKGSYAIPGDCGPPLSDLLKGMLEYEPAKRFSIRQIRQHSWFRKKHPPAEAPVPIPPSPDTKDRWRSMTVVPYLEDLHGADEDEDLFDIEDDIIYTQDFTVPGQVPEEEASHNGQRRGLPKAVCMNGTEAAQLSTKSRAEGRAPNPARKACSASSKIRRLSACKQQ

[3] = target: Interleukin-1 receptor-associated kinase 1 (Homo sapiens) (UniProt P51617); test: Inhibition of human recombinant IRAK1 at 15 nM in presence of ATP by radiometric assay relative to control
Sequence of Interleukin-1 receptor-associated kinase 1 (Homo sapiens) (P51617 whole entry, looked up): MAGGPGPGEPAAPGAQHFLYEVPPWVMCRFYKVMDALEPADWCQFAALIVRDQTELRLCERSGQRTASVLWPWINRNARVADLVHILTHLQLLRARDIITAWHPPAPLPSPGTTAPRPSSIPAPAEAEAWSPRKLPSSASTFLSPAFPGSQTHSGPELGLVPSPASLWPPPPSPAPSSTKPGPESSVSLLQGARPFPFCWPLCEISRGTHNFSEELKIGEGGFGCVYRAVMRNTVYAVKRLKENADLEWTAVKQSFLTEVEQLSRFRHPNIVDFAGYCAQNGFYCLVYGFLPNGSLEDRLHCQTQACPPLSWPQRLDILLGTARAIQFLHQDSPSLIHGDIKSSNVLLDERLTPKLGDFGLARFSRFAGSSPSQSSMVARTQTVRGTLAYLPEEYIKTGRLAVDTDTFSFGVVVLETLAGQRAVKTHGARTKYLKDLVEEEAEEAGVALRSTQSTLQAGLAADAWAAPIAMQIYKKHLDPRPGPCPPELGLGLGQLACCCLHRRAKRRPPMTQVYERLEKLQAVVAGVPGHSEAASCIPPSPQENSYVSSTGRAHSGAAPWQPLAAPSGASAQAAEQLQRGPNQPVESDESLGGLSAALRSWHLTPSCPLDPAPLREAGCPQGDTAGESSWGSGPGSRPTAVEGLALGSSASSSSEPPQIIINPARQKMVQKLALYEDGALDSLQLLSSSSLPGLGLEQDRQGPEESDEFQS

[4] = target: T2, Ephrin type-B receptor 3 (Homo sapiens) (UniProt P54753); test: Inhibition of human recombinant EphB3 at 15 nM related to control ULK1
T2 sequence (whole entry): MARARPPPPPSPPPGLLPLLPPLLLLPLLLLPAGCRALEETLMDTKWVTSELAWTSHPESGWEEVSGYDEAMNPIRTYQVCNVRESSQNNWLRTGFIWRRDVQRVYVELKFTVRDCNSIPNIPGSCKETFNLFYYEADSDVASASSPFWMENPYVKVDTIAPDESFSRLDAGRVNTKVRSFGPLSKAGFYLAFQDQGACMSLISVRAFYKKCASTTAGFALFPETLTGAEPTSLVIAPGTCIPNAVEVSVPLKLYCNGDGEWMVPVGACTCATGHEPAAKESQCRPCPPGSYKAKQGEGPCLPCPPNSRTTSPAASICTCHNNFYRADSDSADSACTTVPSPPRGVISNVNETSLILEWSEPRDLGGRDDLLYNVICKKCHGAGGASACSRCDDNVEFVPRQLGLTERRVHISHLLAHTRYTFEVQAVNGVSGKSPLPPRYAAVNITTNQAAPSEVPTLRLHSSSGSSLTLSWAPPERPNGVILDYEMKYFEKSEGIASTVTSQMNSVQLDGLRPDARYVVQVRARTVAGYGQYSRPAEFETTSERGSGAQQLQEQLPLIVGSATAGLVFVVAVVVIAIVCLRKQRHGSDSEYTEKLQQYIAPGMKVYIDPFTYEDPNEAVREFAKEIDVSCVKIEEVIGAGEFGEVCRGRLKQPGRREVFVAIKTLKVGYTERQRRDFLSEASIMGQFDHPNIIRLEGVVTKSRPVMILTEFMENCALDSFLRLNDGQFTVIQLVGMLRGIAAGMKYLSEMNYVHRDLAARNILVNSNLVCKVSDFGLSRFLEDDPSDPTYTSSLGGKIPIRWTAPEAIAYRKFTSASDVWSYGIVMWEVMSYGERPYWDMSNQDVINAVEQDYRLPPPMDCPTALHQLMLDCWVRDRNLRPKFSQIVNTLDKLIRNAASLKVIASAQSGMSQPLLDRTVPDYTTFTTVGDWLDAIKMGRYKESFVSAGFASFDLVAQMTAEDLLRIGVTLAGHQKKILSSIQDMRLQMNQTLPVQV

[5] = target: Serine/threonine-protein kinase PAK 1 (Homo sapiens) (UniProt Q13153); test: Inhibition of human recombinant PAK1 at 15 nM in presence of ATP by radiometric assay relative to control
Sequence of Serine/threonine-protein kinase PAK 1 (Homo sapiens) (Q13153 whole entry, looked up): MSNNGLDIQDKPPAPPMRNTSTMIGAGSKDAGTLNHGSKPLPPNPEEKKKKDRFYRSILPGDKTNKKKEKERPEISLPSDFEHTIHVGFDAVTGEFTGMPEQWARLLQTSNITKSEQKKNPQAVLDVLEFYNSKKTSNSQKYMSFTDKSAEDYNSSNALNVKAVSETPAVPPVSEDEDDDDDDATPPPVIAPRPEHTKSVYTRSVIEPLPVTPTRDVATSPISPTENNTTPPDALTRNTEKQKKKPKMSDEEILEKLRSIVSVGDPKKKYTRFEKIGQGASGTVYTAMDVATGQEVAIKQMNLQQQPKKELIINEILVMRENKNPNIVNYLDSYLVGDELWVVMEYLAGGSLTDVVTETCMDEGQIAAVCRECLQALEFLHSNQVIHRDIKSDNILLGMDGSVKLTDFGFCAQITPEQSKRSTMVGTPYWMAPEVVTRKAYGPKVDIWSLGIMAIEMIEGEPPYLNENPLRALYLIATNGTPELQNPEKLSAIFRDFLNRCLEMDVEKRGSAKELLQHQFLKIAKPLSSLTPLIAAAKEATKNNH

[6] = target: Focal adhesion kinase 1 (Homo sapiens) (UniProt Q05397); test: Inhibition of human recombinant FAK at 500 nM related to control ULK1
Sequence of Focal adhesion kinase 1 (Homo sapiens) (Q05397 2-1052 limits assumed): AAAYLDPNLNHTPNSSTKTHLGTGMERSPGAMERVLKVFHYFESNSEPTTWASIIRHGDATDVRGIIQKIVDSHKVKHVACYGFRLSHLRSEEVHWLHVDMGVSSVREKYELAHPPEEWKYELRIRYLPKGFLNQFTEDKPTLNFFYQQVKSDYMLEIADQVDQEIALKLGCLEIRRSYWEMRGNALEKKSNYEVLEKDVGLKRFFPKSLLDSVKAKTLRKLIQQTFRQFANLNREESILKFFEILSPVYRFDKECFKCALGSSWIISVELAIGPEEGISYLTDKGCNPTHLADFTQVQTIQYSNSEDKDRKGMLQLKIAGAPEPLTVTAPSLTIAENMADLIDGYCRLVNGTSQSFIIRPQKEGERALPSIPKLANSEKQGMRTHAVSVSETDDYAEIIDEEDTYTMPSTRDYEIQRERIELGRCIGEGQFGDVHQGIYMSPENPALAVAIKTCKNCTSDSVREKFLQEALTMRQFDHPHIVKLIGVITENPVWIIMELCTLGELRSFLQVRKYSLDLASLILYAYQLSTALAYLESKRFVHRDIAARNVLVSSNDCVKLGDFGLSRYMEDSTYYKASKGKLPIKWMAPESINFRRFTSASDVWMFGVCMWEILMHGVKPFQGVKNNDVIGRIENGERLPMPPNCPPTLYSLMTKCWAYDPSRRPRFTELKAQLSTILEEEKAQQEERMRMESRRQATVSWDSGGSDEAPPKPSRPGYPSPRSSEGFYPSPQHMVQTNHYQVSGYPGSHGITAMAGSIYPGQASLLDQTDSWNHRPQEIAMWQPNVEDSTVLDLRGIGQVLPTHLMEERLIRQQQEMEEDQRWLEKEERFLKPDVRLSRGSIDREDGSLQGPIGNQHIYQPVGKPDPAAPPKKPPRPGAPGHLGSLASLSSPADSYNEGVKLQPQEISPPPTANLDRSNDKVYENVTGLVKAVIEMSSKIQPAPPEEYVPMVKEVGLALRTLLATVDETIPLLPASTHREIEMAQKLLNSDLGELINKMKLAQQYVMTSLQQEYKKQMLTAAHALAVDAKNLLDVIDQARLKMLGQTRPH

[7] = target: Serine/threonine-protein kinase 32C (Homo sapiens) (UniProt Q86UX6); test: Inhibition of human recombinant YANK3 at 500 nM related to control ULK1
Sequence of Serine/threonine-protein kinase 32C (Homo sapiens) (Q86UX6 whole entry, canonical isoform): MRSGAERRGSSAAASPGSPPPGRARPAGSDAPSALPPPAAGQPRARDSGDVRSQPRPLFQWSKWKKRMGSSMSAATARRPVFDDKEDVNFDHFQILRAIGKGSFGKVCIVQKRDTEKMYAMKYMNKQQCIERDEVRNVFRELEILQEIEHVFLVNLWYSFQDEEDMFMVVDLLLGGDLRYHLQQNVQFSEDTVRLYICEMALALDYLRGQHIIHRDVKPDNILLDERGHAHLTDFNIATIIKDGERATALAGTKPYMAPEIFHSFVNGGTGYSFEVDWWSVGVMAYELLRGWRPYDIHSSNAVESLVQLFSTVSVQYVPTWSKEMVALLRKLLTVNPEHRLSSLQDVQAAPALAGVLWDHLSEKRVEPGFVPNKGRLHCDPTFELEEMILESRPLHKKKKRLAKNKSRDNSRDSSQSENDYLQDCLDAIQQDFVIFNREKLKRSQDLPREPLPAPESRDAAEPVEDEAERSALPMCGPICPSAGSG

[8] = target: Casein kinase I isoform gamma-1 (Homo sapiens) (UniProt Q9HCP0); test: Inhibition of human recombinant CK1g1 at 500 nM related to control ULK1
Sequence of Casein kinase I isoform gamma-1 (Homo sapiens) (Q9HCP0 whole entry, looked up, canonical isoform): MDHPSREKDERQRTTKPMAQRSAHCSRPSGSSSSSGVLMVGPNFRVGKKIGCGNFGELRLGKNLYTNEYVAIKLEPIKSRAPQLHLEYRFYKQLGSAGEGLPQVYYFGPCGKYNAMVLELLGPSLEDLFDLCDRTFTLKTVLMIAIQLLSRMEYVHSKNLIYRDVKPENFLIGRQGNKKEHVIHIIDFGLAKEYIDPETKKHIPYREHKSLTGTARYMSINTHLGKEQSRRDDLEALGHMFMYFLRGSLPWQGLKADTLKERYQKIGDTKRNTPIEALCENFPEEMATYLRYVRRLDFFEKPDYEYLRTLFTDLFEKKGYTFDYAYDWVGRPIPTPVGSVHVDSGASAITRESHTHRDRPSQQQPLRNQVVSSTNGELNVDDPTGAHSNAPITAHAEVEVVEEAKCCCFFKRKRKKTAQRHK

[9] = target: T3, Ephrin type-A receptor 3 (Homo sapiens) (UniProt P29320); test: Inhibition of human recombinant EphA3 at 500 nM in presence of ATP by radiometric assay relative to control
T3 sequence (whole entry): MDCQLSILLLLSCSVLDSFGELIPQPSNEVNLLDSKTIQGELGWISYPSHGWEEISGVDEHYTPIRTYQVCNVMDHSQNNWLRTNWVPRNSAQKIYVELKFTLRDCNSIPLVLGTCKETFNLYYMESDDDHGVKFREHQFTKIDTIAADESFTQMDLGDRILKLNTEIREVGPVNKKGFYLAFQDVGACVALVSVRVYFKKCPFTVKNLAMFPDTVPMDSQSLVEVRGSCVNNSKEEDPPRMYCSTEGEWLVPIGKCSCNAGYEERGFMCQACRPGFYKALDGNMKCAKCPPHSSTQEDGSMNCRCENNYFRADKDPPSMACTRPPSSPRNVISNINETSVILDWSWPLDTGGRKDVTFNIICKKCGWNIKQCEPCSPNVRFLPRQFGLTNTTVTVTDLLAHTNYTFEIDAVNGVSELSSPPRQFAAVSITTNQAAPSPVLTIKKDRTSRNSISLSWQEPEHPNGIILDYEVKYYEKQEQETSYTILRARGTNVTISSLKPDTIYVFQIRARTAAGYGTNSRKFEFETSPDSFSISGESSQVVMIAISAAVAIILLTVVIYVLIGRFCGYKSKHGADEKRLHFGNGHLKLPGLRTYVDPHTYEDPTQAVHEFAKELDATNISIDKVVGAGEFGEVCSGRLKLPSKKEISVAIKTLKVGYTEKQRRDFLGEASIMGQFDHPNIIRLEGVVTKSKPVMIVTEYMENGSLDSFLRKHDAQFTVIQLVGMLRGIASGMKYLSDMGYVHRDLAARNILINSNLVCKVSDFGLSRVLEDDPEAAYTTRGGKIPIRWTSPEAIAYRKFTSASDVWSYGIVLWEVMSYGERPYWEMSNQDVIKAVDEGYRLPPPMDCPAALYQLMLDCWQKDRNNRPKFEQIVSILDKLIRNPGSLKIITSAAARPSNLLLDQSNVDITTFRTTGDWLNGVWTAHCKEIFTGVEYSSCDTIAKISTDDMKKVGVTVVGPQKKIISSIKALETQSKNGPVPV

Sequence of Platelet-derived growth factor receptor alpha (Homo sapiens) (P16234 whole entry): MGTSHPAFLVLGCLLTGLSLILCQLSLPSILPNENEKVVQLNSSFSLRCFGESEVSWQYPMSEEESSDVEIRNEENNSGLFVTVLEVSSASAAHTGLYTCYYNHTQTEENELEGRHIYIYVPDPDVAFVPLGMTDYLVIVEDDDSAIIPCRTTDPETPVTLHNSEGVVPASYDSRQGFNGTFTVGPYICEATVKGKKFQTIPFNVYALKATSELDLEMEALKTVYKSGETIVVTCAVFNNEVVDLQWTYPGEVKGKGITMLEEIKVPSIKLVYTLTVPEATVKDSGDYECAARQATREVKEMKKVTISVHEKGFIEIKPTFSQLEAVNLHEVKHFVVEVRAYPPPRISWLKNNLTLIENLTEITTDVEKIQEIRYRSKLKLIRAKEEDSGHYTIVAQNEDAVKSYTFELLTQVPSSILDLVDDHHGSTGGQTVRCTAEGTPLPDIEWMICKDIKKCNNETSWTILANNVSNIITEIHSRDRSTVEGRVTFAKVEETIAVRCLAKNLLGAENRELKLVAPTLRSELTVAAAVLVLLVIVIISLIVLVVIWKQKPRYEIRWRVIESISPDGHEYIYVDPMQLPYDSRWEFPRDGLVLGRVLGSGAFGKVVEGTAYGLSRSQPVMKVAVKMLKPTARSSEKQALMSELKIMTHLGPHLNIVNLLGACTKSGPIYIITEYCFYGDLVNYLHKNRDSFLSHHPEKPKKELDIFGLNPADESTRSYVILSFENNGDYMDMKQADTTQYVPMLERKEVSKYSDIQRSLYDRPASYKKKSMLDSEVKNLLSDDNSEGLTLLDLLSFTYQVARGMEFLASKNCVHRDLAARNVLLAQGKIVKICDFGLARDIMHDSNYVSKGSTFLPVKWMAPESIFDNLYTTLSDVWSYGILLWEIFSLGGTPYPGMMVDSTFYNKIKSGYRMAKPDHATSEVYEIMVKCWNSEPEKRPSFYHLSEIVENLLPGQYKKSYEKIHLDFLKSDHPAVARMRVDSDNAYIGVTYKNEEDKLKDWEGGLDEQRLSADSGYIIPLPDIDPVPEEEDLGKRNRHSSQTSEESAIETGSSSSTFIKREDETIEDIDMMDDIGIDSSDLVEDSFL

O=C(N[C@@H](C1CC1)C(F)(F)F)c1cc(-c2cnn3cc(-c4ccc(F)cc4)cnc23)cs1 gave an inhibition [1] of 0% and a fold change (FC) [2] of 0.18.

Molecule CC(C)[C@H](NC(=O)c1cc(-c2cnn3cc(-c4ccc(OCCN5CCCCC5)cc4)cnc23)cs1)C(F)(F)F has an inhibition [3] of 36%, a fold change (FC) [4] of 0 and an inhibition [5] of 0%.

CNC(=O)c1ccccc1Oc1nc(Nc2cc(OC)c(OC)c(OC)c2)ncc1Br was tested, and the fold change (FC) [6] was 0.96, the fold change (FC) [7] was 0 and the fold change (FC) [8] was 0. It also gave an inhibition [9] of 11%.
